This note sets out measurements from patent US20250144056A1, “ANTIMICROBIAL HOST DEFENSE PEPTIDE-INDUCING COMPOSITIONS AND METHODS OF PRODUCTION AND USE THEREOF” (Board of Regents for the Oklahoma Agricultural and …, priority 2022, published 2025).

Type in all cases: cell-based, chicken
In one experiment the test system is AvBD10. In words: RT-qPCR of AvBD10 in HD11 macrophages. The following applies: HD11 cells, 5 μM compound with 2 mM butyrate, 24 h (FIG. 6, Panel D). The procedure:
(§1) Culture and stimulation of macrophages. Two different chicken macrophage cell lines, HTC (24) and HD11 (25), were kindly provided by Dr. Narayan C. Rath and Dr. Hyun Lillehoj of USDA-ARS and maintained in RPMI 1640 containing 10% heat-inactivated FBS, 100 U/ml penicillin, and 100 μg/ml streptomycin and subcultured every 3-4 days. After overnight seeding at 1.5×10^6 cells/well in 6-well cell culture plates, cells were treated with different concentrations of each compound for 24 h or with the indicated concentration of each compound for various lengths of time for dose-response and time-course experiments, respectively. […]
(§2) Total RNA extraction and gene expression analysis. […] Gene expression was performed using reverse transcription-quantitative PCR (RT-qPCR) as previously described (27-29). […] The cDNA was then diluted 10-fold with RNase-free water prior to real-time PCR using QuantiTect SYBR® Green PCR Kit (Qiagen, Valencia, CA) in 10-μl reactions using primers specific for HDP, barrier function, and inflammatory cytokine genes as described (27, 29, 30). […] The fold changes in gene expression in the cells treated with individual compounds or in combinations were calculated relative to the cells treated with an equal volume of RPMI 1640 or DMSO using the ΔΔCt method (31).
In general terms: Quantitative PCR measures a nucleic acid by following its amplification.

Another experiment concerns AvBD9. In words: RT-qPCR of AvBD9 in HD11 macrophages. The following applies: HD11 cells, 5 μM compound with 2 mM butyrate, 24 h (FIG. 6, Panel A). The procedure: as §1, §2
For the next experiment, the system named is AvBD9 mRNA expression. The experiment in a line: RT-qPCR of AvBD9 mRNA expression in HTC macrophage cells. As to conditions: for synergy with butyrate in AvBD9 mRNA expression: indicated concentrations in combination with 2 mM butyrate, 24 h (FIG. 4); for synergy in AvBD9 induction between HMTi and HDACi: with butyrate or mocetinostat, 24 h (FIG. 7, Panel C); for induction of AvBD9 gene expression / increase in AvBD9 expression, combination with mocetinostat: 24 h (FIG. 7, Panel D); for increase in AvBD9 expression, combination with mocetinostat: 5 μM compound in combination with 2.5 μM mocetinostat. The procedure:
(§3) Culture and stimulation of macrophages. Two different chicken macrophage cell lines, HTC (24) and HD11 (25), were kindly provided by Dr. Narayan C. Rath and Dr. Hyun Lillehoj of USDA-ARS and maintained in RPMI 1640 containing 10% heat-inactivated FBS, 100 U/ml penicillin, and 100 μg/ml streptomycin and subcultured every 3-4 days. After overnight seeding at 1.5×10^6 cells/well in 6-well cell culture plates, cells were treated with different concentrations of each compound for 24 h or with the indicated concentration of each compound for various lengths of time for dose-response and time-course experiments, respectively. To study the synergy between HMTi/DNMTi and HDACi, different concentrations of an HMTi or DNMTi were added to the cells in the presence or absence of an HDACi for 24 h, followed by RNA isolation and HDP gene expression analysis as described below. HTC cells were also stimulated with butyrate, BIX01294, or their combination for 24 h, followed by 3-h stimulation with 10 ng/ml LPS and subsequent expression analysis.
(§4) Total RNA extraction and gene expression analysis. Total RNA was extracted using RNAzol (Molecular Biology Research Center, Cincinnati, OH) according to the manufacturer's protocol. Gene expression was performed using reverse transcription-quantitative PCR (RT-qPCR) as previously described (27-29). Reverse transcription was performed with 300 ng of total RNA and Maxima® First Strand cDNA Synthesis Kit (ThermoFisher Scientific, Pittsburgh, PA). The cDNA was then diluted 10-fold with RNase-free water prior to real-time PCR using QuantiTect SYBR® Green PCR Kit (Qiagen, Valencia, CA) in 10-μl reactions using primers specific for HDP, barrier function, and inflammatory cytokine genes as described (27, 29, 30). PCR was run in CFX Connect Real-Time PCR System (Bio-Rad, Hercules, CA) using the following program: 95° C. for 10 min, followed by 40 cycles of 94° C. for 15 sec, 55° C. for 20 sec, and 72° C. for 30 sec. The specificity of PCR reactions was confirmed by the melting curve analysis. The glyceraldehyde-3-phosphate dehydrogenase (GAPDH) gene was used as the reference for data normalization. The fold changes in gene expression in the cells treated with individual compounds or in combinations were calculated relative to the cells treated with an equal volume of RPMI 1640 or DMSO using the ΔΔCt method (31).

A further experiment concerns AvBD1. The experiment in a line: RT-qPCR of AvBD1 in HD11 macrophages. The following applies: HD11 cells, 5 μM compound with 2 mM butyrate, 24 h (FIG. 6, Panel B). The procedure: as §1, §2
The next experiment relates to AvBD4. In words: RT-qPCR of AvBD4 in HD11 macrophages. The following applies: HD11 cells, 5 μM compound with 2 mM butyrate, 24 h (FIG. 6, Panel C). The procedure: as §1, §2
A further experiment has as its system CLDN1. The experiment in a line: RT-qPCR of CLDN1 (claudin 1) in HTC cells. The following applies: 24 h (FIG. 8, Panel F). The procedure:
as §3, §4

The next experiment deals with AvBD9 gene promoter. In words: HTC/AvBD9-luc luciferase reporter assay. The following applies: for activation of the AvBD9 gene promoter (relative luciferase activity): compound alone, different concentrations, 24 h (FIG. 2, Panel A); for synergy in luciferase activity with butyrate: different concentrations in combination with 2 mM butyrate, 24 h (FIG. 3). The procedure:
Culture and stimulation of a stable HTC/AvBD9-luc luciferase reporter cell line. A stable HTC/AvBD9-luc cell line was generated by cloning a 2.0-Kb AvBD9 gene promoter fragment into a lentiviral luciferase reporter vector, pGreenFire1-mCMV-Puro (System Biosciences, Palo Alto, CA) and then transfected into HTC cells as previously described (22). The stable cell line was maintained in RPMI 1640 containing 10% heat-inactivated FBS, 100 U/ml penicillin, 100 μg/mL streptomycin, and 0.5 μg/mL puromycin and subcultured every 3-4 days. To measure transcriptional activation of the AvBD9 gene promoter in response to different epigenetic compounds, cells were seeded at 4×10^4 cells/well in white 96-well tissue culture plates and stimulated in duplicate with different compounds individually or in combination for 24 h. An equal amount of a solvent was applied as a negative control. Luciferase activity was measured using STEADY-GLO® Luciferase Assay System (Promega, Madison, WI) on an L-Max II luminescence microplate reader (Molecular Devices, Sunnyvale, CA). Cell viabilities were assessed by adding alamarBlue Reagent (ThermoFisher, Waltham, MA) to cell culture 4 h before luciferase assay. Relative luciferase activity was determined for each well after normalization to the cell viability as previously described (22).

Another experiment concerns IL-1β. The experiment in a line: RT-qPCR of IL-1β in HTC cells with or without LPS. The procedure:
as §3, §4

For another experiment, the system named is IL-8. In words: RT-qPCR of IL-8 in HTC cells with or without LPS. The procedure:
as §3, §4

“Also recorded” adds a separate entry of the source.

As for `CCCc1cc(C)[nH]c(=O)c1CNC(=O)c1cc(-c2ccc(N3CCN(C(C)C)CC3)nc2)cc2c1cnn2C(C)C` [UNC1999], in the experiment with AvBD10, the “AvBD10 induction, combination with butyrate” value is recorded as “synergistically induced, albeit at lower magnitudes”. Moreover, the “synergy in AvBD9 induction with butyrate” value in the experiment with AvBD9 is “drastic synergy”. Moreover, the “additional increase in AvBD9 expression of the butyrate combination over compound alone” value in the experiment on AvBD9 mRNA expression (20 μM compound + 2 mM butyrate versus 20 μM compound alone) is on record as 14 fold. Further, the “increase in AvBD9 mRNA expression” value in the experiment on AvBD9 mRNA expression (20 μM compound alone, 24 h (FIG. 2, Panel B), peak) was determined as 259 fold. Besides, the “induction of AvBD9 expression” value in the experiment on AvBD9 mRNA expression (20 μM compound alone, 24 h (FIG. 4, Panels A, B)) is reported as 324 fold. The “increase in AvBD9 expression, combination with butyrate” value in the experiment on AvBD9 mRNA expression (20 μM compound in combination with 2 mM butyrate, 24 h (FIG. 4, Panels A, B)) is listed as 4,470 fold. Further, in the experiment on AvBD9 mRNA expression, the “synergy with butyrate in AvBD9 mRNA expression” value is “concentration-dependent increase”; the “synergy in AvBD9 induction between HMTi and HDACi” value is on record as “marked synergy”. For the same molecule, the “AvBD1 induction, combination with butyrate” value in the experiment with AvBD1 is “synergistically induced, albeit at lower magnitudes”. Also, the “AvBD4 induction, combination with butyrate” value in the experiment with AvBD4 is reported as “synergistically induced, albeit at lower magnitudes”. Besides, the “CLDN1 induction, combination with mocetinostat” value in the experiment with CLDN1 (5 μM UNC1999 + 2.5 μM mocetinostat) is recorded as “synergistically induced”. Besides, in the experiment with CLDN1 (5 μM UNC1999 + 2 mM butyrate), the “CLDN1 induction, combination with butyrate” value is reported as “synergistically induced”. Further, in the experiment with AvBD9 gene promoter, the “activation of the AvBD9 gene promoter (relative luciferase activity)” value is “concentration-dependent activation” and the “synergy in luciferase activity with butyrate” value is listed as “marked dose-dependent increase in the synergy”.
Take `CCCC(=O)[O-].[Na+]` [butyrate, Sodium butyrate]: in the experiment with IL-1β (compound alone 24 h, then 10 ng/ml LPS 3 h (FIG. 8, Panel D)), the “effect on LPS-induced IL-1β expression” value is given as “suppressed”. The “activity in inducing gene expression of IL-1β” value in the experiment with IL-1β (compound alone (2 mM butyrate or 5 μM BIX01294), without LPS (FIG. 8, Panel D)) is “no or weak activity”. The “induction of AvBD9 expression” value with AvBD9 mRNA expression (2 mM butyrate alone, 24 h (FIG. 4, Panel A)) is recorded as 27 fold. Besides, in the experiment on IL-8 (compound alone 24 h, then 10 ng/ml LPS 3 h (FIG. 8, Panel E)), the “effect on LPS-induced IL-8 expression” value was “potentiated”. Moreover, in the experiment on IL-8 (compound alone (2 mM butyrate or 5 μM BIX01294), without LPS (FIG. 8, Panel E)), the “activity in inducing gene expression of IL-8” value is “no or weak activity”.
`Nc1ncn([C@@H]2O[C@H](CO)[C@@H](O)[C@H]2O)c(=O)n1` [AZA, 5-azacytidine]: the “induction of AvBD9 gene expression” value in the experiment with AvBD9 mRNA expression (5 μM compound alone) is recorded as 3 fold. For the same molecule, the “increase in AvBD9 expression, combination with mocetinostat” value in the experiment with AvBD9 mRNA expression is on record as 1,925 fold.
Turning to `Nc1ccccc1NC(=O)c1ccc(CNc2nccc(-c3cccnc3)n2)cc1` [mocetinostat], in the experiment with AvBD9 mRNA expression (2.5 μM mocetinostat alone), the “induction of AvBD9 gene expression” value is 152 fold.
With `COc1cc2c(cc1OCCCN1CCCC1)N=C(N)C21CCC1` [A-366], the “synergy in AvBD9 induction between HMTi and HDACi” value in the experiment on AvBD9 mRNA expression is “marked synergy”.
For the molecule `Cc1cc(Nc2ccc(NC(=O)c3ccc(Nc4ccnc5ccccc45)cc3)cc2)nc(N)n1` [SGI-1027], the “induction of AvBD9 gene expression” value in the experiment with AvBD9 mRNA expression (5 μM compound alone) is reported as 4 fold. Further, in the experiment on AvBD9 mRNA expression, the “increase in AvBD9 expression, combination with mocetinostat” value was found to be 747 fold and the “synergy with butyrate in AvBD9 mRNA expression” value is reported as “concentration-dependent increase; also recorded: synergize”. Also, the “additional increase in AvBD9 of the butyrate combination over compound alone” value in the experiment with AvBD9 mRNA expression (10 µM compound + 2 mM butyrate versus 10 µM compound alone) is on record as 8 fold. Also, the “induction of AvBD9 mRNA expression” value with AvBD9 mRNA expression (10 μM compound alone, 24 h (FIG. 2, Panel B)) worked out at 51 fold. Further, the AvBD9 expression augmented in the experiment with AvBD9 mRNA expression (10 µM compound alone, 24 h (FIG. 4, Panel C)) came to 51 fold. Besides, in the experiment with AvBD9 mRNA expression (10 µM compound combined with 2 mM butyrate, 24 h (FIG. 4, Panel C)), the “AvBD9 induction when combined with butyrate” value is on record as 411 fold. Further, in the experiment on AvBD9 gene promoter, the “activation of the AvBD9 gene promoter (relative luciferase activity)” value is on record as “weak activator” and the “synergy in luciferase activity with butyrate” value is listed as “no synergy”.
